Assay results as given in patent US20010049128A1, “PROCESS FOR THE FERMENTATIVE PRODUCTION OF L-AMINO ACIDS” (priority 1998, published 2001).
Like-named read-outs stand apart in the source and are kept apart here.

Key:
[1] = tested on: Brevibacterium flavum DSM5399; conditions: 72 hours at 30° C., 300 rpm
Protocol: A culture medium containing 100 g/l saccharose, 12 g/l (NH4)2SO4, 100 ml/l soya flour hydrolysate, 0.5 g/l K2HPO4, 0.5 g/l KH2PO4, 0.25 g/l MgSO4.7H2O, 5.0 g/l NaCl and 1 ml of a solution of trace salts was adjusted to pH 7.0 and autoclaved. The solution of trace salts consisted of 1.0 g FeSO4.7H2O, 1.0 g MnSO4.H2O, 0.1 g ZnSO4.7H2O, 0.02 g CuSO4 and 0.002 g NiCl2.6H2O, which was made up to 100 ml with demineralised water and a few drops of a 1N HCl solution.
1 ml each of a 0.2 mg/l biotin and thiamine stock solution, which had been sterilised by filtration, were added to the culture medium. 10.0 g/l CaCO3 was sterilised together with the shaking flasks. In the culture medium, the proline concentration resulting from the introduction of soya flour hydrolysate was 0.34 g/l. The specified concentration of proline, obtained from a proline stock solution, was added to the medium after having been sterilised by filtration.
An agar plate with brain-heart agar as nutrient medium, which had been incubated for 72 hours with DSM5399, was suspended in 10 ml of sterile physiological saline. 10 ml portions of cultivation medium were placed in 100 ml Erlenmeyer shaking flasks and inoculated with 100 μl of the withdrawn cell suspension. The cultivation took place over 72 hours at 30° C. and 300 rpm. Subsequent to this, as specified in Example 1, the OD was determined at a wavelength of 660 nm and the threonine concentration was measured.

[2] = tested on: Brevibacterium flavum DSM5399; conditions: Proline 0.1 g/l; 72 hours at 30° C., 300 rpm
Protocol: The solution of trace salts consisted of 1.0 g FeSO4.7H2O, 1.0 g MnSO4.H2O, 0.1 g ZnSO4.7H2O, 0.02 g CuSO4 and 0.002 g NiCl2.6H2O, which was made up to 100 ml with demineralised water and a few drops of a 1N HCl solution.
1 ml each of a 0.2 mg/l biotin and thiamine stock solution, which had been sterilised by filtration, were added to the culture medium. 10.0 g/l CaCO3 was sterilised together with the shaking flasks.
10 ml portions of cultivation medium were placed in 100 ml Erlenmeyer shaking flasks and inoculated with 100 μl of the withdrawn cell suspension. The cultivation took place over 72 hours at 30° C. and 300 rpm.

[3] = tested on: Corynebacterium glutamicum DSM5715; conditions: Proline 0.5 g/l; 72 hours at 33° C., 150 rpm; NaCl 5 g/l
Protocol: A culture medium containing 2.5 g/l NaCl, 10 g/l peptone and 10 g/l yeast extract was adjusted to pH 7.4 with sodium hydroxide and, after heat sterilisation, 40 ml of 50% glucose solution per liter was added thereto. 47 ml portions of the medium were inoculated with Corynebacterium glutamicum DSM5715 with a needle on an agar plate with brain-heart agar as nutrient medium incubated for 48 hours and were shaken at 150 rpm for 20 hours at 33° C. in an RC-1-TK incubator from the firm Infors AG (Bottmingen, Switzerland). The cells were then washed with sterile physiological saline. The cells were separated by centrifugation for 20 minutes at 4000 rpm in a Beckmann centrifuge J 6B.
For the main cultivation in shaking flasks, 40 g (NH4)2SO4, 0.5 g KH2PO4, 0.5 g K2HPO4, 0.25 g MgSO4.7H2O and 0.3 g L-leucine were weighed in a 1 l beaker and 750 ml distilled water was added thereto. […]
The cultivation took place over 72 hours at 33° C. and 150 rpm in an RC-1-TK incubator from the firm Infors AG (Bottmingen, Switzerland). Subsequent to this, the optical density (OD) (photometer LP2W from the firm Dr. Lange, Berlin, Germany) and the concentration of L-amino acid formed in the culture suspension were determined. Amino acids were analysed by ion-exchange chromatography and post-column reaction with ninhydrin detection, using an amino acid analyser from the firm Eppendorf BioTronik (Hamburg, Germany).

[4] = tested on: cells in media with inhibiting osmotic stress; conditions: cited from earlier work
[5] = Proline 0.34 g/l (resulting from soya flour hydrolysate, none added)

SMILES	OD 660 nm [1, 5]	Threonine [1, 5]	OD 660 nm ([1]; Proline 0.66 g/l)	Threonine ([1]; Proline 0.66 g/l)	L-isoleucine [2]	OD 660 nm [2]	Lysine [3]	OD 535 nm [3]	growth rate of the cells [4]	production of L-lysine [4]
O=C(O)[C@@H]1CCCN1 [Proline, L-proline]	51.2	0.63 g/L	52.6	1.29 g/L	0.36 g/L	52.0	29.4 g/L	30.5		
C[N+](C)(C)CC(=O)[O-] [glycine betaine]									stimulates the growth rate	increase in the production of L-lysine
